The molecules below were run against Maltase-glucoamylase (Homo sapiens, UniProt O43451) (assay: Inhibition of alpha glucosidase).
Maltase-glucoamylase, sequence (O43451 whole entry): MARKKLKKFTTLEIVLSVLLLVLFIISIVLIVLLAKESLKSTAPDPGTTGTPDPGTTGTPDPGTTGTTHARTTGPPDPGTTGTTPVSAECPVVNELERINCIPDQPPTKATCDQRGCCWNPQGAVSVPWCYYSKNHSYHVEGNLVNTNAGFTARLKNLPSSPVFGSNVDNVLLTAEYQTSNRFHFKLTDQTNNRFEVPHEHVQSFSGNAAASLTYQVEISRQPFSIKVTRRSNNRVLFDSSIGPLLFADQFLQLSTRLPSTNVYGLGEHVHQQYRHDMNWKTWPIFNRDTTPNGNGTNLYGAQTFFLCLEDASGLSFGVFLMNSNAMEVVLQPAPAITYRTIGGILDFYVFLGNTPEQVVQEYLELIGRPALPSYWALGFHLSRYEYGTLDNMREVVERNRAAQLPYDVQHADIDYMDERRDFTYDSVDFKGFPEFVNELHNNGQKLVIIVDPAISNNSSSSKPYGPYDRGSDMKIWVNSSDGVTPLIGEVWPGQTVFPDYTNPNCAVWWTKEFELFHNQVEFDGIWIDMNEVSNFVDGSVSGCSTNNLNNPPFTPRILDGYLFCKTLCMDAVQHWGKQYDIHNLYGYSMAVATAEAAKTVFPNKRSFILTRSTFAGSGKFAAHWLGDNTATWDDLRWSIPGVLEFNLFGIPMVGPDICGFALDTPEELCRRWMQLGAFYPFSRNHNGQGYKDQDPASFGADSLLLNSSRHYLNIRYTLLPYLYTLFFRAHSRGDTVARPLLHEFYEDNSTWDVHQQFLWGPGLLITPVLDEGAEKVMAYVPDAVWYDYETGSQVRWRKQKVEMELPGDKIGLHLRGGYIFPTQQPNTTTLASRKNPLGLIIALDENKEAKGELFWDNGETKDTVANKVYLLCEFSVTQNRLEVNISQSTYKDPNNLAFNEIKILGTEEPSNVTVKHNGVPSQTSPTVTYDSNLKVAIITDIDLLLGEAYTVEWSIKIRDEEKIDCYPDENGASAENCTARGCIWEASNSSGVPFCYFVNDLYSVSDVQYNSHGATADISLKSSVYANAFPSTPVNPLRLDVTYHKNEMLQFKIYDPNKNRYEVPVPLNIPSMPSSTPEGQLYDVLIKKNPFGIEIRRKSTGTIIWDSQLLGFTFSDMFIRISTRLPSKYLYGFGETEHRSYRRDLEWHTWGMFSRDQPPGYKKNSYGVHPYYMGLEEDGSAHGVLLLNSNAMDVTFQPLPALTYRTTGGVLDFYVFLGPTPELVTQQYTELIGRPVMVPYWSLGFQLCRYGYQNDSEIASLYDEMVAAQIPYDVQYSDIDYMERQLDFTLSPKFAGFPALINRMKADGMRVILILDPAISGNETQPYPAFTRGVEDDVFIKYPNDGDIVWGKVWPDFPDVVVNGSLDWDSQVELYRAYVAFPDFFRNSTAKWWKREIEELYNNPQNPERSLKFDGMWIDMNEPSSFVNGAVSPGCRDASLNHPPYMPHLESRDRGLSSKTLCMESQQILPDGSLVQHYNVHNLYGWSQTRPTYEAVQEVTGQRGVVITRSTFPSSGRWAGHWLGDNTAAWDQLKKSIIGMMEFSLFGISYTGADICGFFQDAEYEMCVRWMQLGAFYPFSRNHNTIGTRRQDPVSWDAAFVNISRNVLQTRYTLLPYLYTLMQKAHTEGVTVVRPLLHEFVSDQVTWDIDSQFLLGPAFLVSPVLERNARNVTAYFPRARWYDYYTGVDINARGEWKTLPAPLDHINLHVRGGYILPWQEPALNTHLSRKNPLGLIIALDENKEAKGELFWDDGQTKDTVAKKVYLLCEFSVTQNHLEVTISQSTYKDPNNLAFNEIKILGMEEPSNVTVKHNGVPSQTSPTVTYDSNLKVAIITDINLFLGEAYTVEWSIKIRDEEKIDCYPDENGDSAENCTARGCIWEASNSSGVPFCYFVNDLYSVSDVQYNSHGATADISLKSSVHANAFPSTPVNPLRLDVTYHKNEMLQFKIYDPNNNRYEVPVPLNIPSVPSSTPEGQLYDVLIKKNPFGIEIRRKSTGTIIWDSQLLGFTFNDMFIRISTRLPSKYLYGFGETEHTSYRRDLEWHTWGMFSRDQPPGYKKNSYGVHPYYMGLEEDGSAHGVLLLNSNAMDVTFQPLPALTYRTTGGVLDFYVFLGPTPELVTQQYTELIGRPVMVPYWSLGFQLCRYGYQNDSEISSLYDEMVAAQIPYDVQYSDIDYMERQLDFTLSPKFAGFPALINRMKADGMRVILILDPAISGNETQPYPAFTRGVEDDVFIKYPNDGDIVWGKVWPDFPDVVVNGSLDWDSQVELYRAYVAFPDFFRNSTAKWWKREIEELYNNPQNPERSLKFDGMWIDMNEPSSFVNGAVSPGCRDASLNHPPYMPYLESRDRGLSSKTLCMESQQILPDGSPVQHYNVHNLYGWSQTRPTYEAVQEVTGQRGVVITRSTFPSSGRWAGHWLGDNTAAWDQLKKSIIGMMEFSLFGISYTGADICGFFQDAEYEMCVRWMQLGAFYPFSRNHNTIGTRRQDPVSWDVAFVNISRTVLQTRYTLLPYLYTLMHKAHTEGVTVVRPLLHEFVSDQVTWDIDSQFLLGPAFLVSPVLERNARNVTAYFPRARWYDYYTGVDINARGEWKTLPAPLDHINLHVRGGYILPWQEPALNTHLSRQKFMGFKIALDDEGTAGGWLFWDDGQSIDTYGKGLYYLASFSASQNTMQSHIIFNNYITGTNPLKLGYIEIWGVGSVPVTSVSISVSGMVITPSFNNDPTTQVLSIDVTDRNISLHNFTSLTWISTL

IC50 | SMILES
58 µM | C=C1CC[C@@H]2[C@](C)(CO)[C@H](O)CC[C@@]2(C)[C@@H]1/C=C/C1=CC(=C/C=C/c2ccccc2)/OC1=O [3-(2-((1R,4aS,5R,6R,8aR)-6-hydroxy-5-(hydroxymethyl)-5,8a-dimethyl-2-methylene-decahydronaphthalen-1-yl)vinyl)-5-(3-phenylallylidene)furan-2(5H)-one]
101 µM | C[C@]1(CO)[C@H]2CC[C@@]3(CO3)[C@@H](/C=C/C3=CC(=C/C=C/c4ccccc4)/OC3=O)[C@]2(C)CC[C@H]1O [(5Z)-3-[(E)-2-[(1S,2S,4aS,5R,6R,8aR)-6-hydroxy-5-(hydroxymethyl)-5,8a-dimethyl-octahydro-1H-spiro[naphthalene-2,2'-oxirane]-1-yl]ethenyl]-5-[(2E)-3-phenylprop-2-en-1-ylidene]-2,5-dihydrofuran-2-one]

More lines, now with the values behind:

SMILES | IC50
C=C1CC[C@@H]2[C@](C)(CO)[C@H](O)CC[C@@]2(C)[C@@H]1/C=C/C1=CC(=C/CCC)/OC1=O [5-butylidene-3-(2-((1R,4aS,5R,6R,8aR)-6-hydroxy-5-(hydroxymethyl)-5,8a-dimethyl-2-methylene-decahydronaphthalen-1-yl)vinyl)furan-2(5H)-one] | 110 µM
COc1ccc(/C=C2C=C(/C=C/[C@@H]3[C@@]4(CC[C@@H]5[C@](C)(CO)[C@H](O)CC[C@]53C)CO4)C(=O)O/2)cc1 [(5Z)-3-[(E)-2-[(1S,2S,4aS,5R,6R,8aR)-6-hydroxy-5-(hydroxymethyl)-5,8a-dimethyl-octahydro-1H-spiro[naphthalene-2,2'-oxirane]-1-yl]ethenyl]-5-[(4-methoxyphenyl)methylidene]-2,5-dihydrofuran-2-one] | 120 µM
C=C1CC[C@@H]2[C@]3(C)COC(c4cccc(Br)c4)O[C@@H]3CC[C@@]2(C)[C@@H]1C/C=C1/C(=O)OC[C@H]1O (stereo partly drawn) [(S)-3-(2-((4aR,6aS,7R,10aS,10bR)-3-(3-bromophenyl)-6a,10b-dimethyl-8-methylene-decahydro-1H-naphtho[2,1-d][1,3]dioxin-7-yl)ethylidene)-4-hydroxy-dihydrofuran-2(3H)-one] | 100 µM
C=C1CC[C@@H]2[C@]3(C)COC(c4ccccc4)O[C@@H]3CC[C@@]2(C)[C@@H]1C/C=C1/C(=O)OC[C@H]1O (stereo partly drawn) [(S)-3-(2-((4aR,6aS,7R,10aS,10bR)-6a,10b-dimethyl-8-methylene-3-phenyl-decahydro-1H-naphtho[2,1-d][1,3]dioxin-7-yl)ethylidene)-4-hydroxy-dihydrofuran-2(3H)-one] | 101 µM
